# Experimental data as given in ChEMBL document CHEMBL1201862, “PubChem BioAssay data set” (2004).
#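 Compound exposure: 48 hours, 5 concentrations, 96-well plates. GI50 = concentration required for 50% inhibition of growth.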 The source made the active and inactive calls. Rule as the data show it: active = GI50 up to about 1.1 µM and inactive = higher.
# What was measured:
# Assay in all cases: growth of human tumour cells (NCI), 48 h
# [1] = tested on: 786-0
# [2] = tested on: A498
# [3] = tested on: A549
# [4] = tested on: ACHN
# [5] = tested on: BT-549
# [6] = tested on: CAKI-1
# [7] = tested on: CCRF-CEM
# [8] = tested on: COLO 205
# [9] = tested on: DU-145
# [10] = tested on: EKVX
# [11] = tested on: HCC 2998
# [12] = tested on: HCT-116
# [13] = tested on: HCT-15
# [14] = tested on: HL-60
# [15] = tested on: HOP-62
# [16] = tested on: HOP-92
# [17] = tested on: HT-29
# [18] = tested on: Hs-578T
# [19] = tested on: IGROV-1
# [20] = tested on: K562
# [21] = tested on: KM12
# [22] = tested on: LOX IMVI
# [23] = tested on: M14
# [24] = tested on: MCF7
# [25] = tested on: MDA-MB-231
# [26] = tested on: MDA-MB-435
# [27] = tested on: MDA-N
# [28] = tested on: MOLT-4
# [29] = tested on: Malme-3M
# [30] = tested on: NCI-H226
# [31] = tested on: NCI-H23
# [32] = tested on: NCI-H460
# [33] = tested on: NCI-H522
# [34] = tested on: NCI/ADR-RES
# [35] = tested on: OVCAR-3
# [36] = tested on: OVCAR-4
# [37] = tested on: OVCAR-5
# [38] = tested on: OVCAR-8
# [39] = tested on: PC-3
# [40] = tested on: RPMI-8226
# [41] = tested on: SF-268
# [42] = tested on: SF-295
# [43] = tested on: SF-539
# [44] = tested on: SK-MEL-28
# [45] = tested on: SK-MEL-2
# [46] = tested on: SK-MEL-5
# [47] = tested on: SK-OV-3
# [48] = tested on: SN12C
# [49] = tested on: SNB-19
# [50] = tested on: SNB-75
# [51] = tested on: SW-620
# [52] = tested on: T47D
# [53] = tested on: TK-10
# [54] = tested on: U-251
# [55] = tested on: UACC-257
# [56] = tested on: UACC-62
# [57] = tested on: UO-31
# [58] = tested on: RXF 393
structure (smiles),measurement,setting,value
CC(=O)O[C@H]1C[C@H](O[C@H]2[C@@H](O)C[C@H](O[C@H]3[C@@H](O)C[C@H](O[C@H]4CC[C@@]5(C)[C@H](CC[C@@H]6[C@@H]5CC[C@]5(O)[C@@H](C7=CC(=O)OC7)CC[C@]65O)C4)O[C@@H]3C)O[C@@H]2C)O[C@H](C)[C@H]1O[C@@H]1O[C@H](CO)[C@@H](O)[C@H](O)[C@H]1O,GI50,[1],0.258 µM (active)
same,GI50,[2],0.383 µM (active)
same,GI50,[3],0.0581 µM (active)
same,GI50,[4],0.075 µM (active)
same,GI50,[5],304 nM (active)
same,GI50,[6],0.132 µM (active)
same,GI50,[7],0.116 µM (active)
same,GI50,[8],0.711 µM (active)
same,GI50,[9],0.243 µM (active)
same,GI50,[10],0.233 µM (active)
same,GI50,[11],1.52 µM (inactive)
same,GI50,[12],0.243 µM (active)
same,GI50,[13],293 nM
same,GI50,[14],0.223 µM (active)
same,GI50,[15],0.0664 µM (active)
same,GI50,[16],792 nM (active)
same,GI50,[17],0.286 µM (active)
same,GI50,[18],0.348 µM (active)
same,GI50,[19],0.356 µM (active)
same,GI50,[20],0.337 µM (active)
same,GI50,[21],0.565 µM (active)
same,GI50,[22],0.271 µM (active)
same,GI50,[23],0.841 µM (active)
same,GI50,[24],0.52 µM (active)
same,GI50,[25],2.35 µM (inactive)
same,GI50,[26],0.624 µM (active)
same,GI50,[27],0.45 µM (active)
same,GI50,[28],0.0262 µM (active)
same,GI50,[29],0.403 µM (active)
same,GI50,[30],1.29 µM (inactive)
same,GI50,[31],0.137 µM (active)
same,GI50,[32],0.106 µM (active)
same,GI50,[33],0.0492 µM (active)
same,GI50,[34],0.237 µM (active)
same,GI50,[35],0.349 µM (active)
same,GI50,[36],0.497 µM (active)
same,GI50,[37],0.455 µM (active)
same,GI50,[38],0.452 µM (active)
same,GI50,[39],328 nM (active)
same,GI50,[40],0.462 µM (active)
same,GI50,[41],0.358 µM (active)
same,GI50,[42],0.344 µM (active)
same,GI50,[43],0.185 µM (active)
same,GI50,[44],1.5 µM (inactive)
same,GI50,[45],498 nM (active)
same,GI50,[46],0.223 µM (active)
same,GI50,[47],0.555 µM (active)
same,GI50,[48],0.258 µM (active)
same,GI50,[49],0.771 µM (active)
same,GI50,[50],0.908 µM (active)
same,GI50,[51],0.407 µM (active)
same,GI50,[52],0.553 µM (active)
same,GI50,[53],0.428 µM (active)
same,GI50,[54],0.427 µM (active)
same,GI50,[55],0.597 µM (active)
same,GI50,[56],0.769 µM (active)
same,GI50,[57],391 nM (active)
CO/N=C(/C(=O)N(C(=O)/C(=N/OC)c1csc(NC(c2ccccc2)(c2ccccc2)c2ccccc2)n1)n1cnn(CC(=O)OC(C)(C)C)c1=O)c1csc(NC(c2ccccc2)(c2ccccc2)c2ccccc2)n1,GI50,[1],> 10 µM (inactive)
same,GI50,[2],> 10 µM (inactive)
same,GI50,[3],> 10 µM (inactive)
same,GI50,[4],> 10 µM (inactive)
same,GI50,[5],2160 nM (inactive)
same,GI50,[6],> 10 µM (inactive)
same,GI50,[7],> 10 µM (inactive)
same,GI50,[8],> 10 µM (inactive)
same,GI50,[9],> 10 µM (inactive)
same,GI50,[10],> 10 µM (inactive)
same,GI50,[11],> 10 µM (inactive)
same,GI50,[12],> 10 µM (inactive)
same,GI50,[13],> 10000 nM
same,GI50,[14],> 10 µM (inactive)
same,GI50,[15],> 10 µM (inactive)
same,GI50,[17],> 10 µM (inactive)
same,GI50,[18],> 10 µM (inactive)
same,GI50,[19],> 10 µM (inactive)
same,GI50,[20],> 10 µM (inactive)
same,GI50,[21],> 10 µM (inactive)
same,GI50,[22],> 10 µM (inactive)
same,GI50,[23],> 10 µM (inactive)
same,GI50,[24],> 10 µM (inactive)
same,GI50,[25],> 10 µM (inactive)
same,GI50,[26],> 10 µM (inactive)
same,GI50,[27],> 10 µM (inactive)
same,GI50,[28],> 10 µM (inactive)
same,GI50,[29],> 10 µM (inactive)
same,GI50,[30],> 10 µM (inactive)
same,GI50,[31],> 10 µM (inactive)
same,GI50,[32],> 10 µM (inactive)
same,GI50,[33],> 10 µM (inactive)
same,GI50,[34],> 10 µM (inactive)
same,GI50,[35],> 10 µM (inactive)
same,GI50,[36],> 10 µM (inactive)
same,GI50,[37],> 10 µM (inactive)
same,GI50,[38],> 10 µM (inactive)
same,GI50,[39],1870 nM (inactive)
same,GI50,[40],> 10 µM (inactive)
same,GI50,[58],> 10 µM (inactive)
same,GI50,[41],> 10 µM (inactive)
same,GI50,[42],> 10 µM (inactive)
same,GI50,[43],> 10 µM (inactive)
same,GI50,[44],> 10 µM (inactive)
same,GI50,[45],2310 nM (inactive)
same,GI50,[46],> 10 µM (inactive)
same,GI50,[47],> 10 µM (inactive)
same,GI50,[48],> 10 µM (inactive)
same,GI50,[49],> 10 µM (inactive)
same,GI50,[50],> 10 µM (inactive)
same,GI50,[51],> 10 µM (inactive)
same,GI50,[52],> 10 µM (inactive)
same,GI50,[53],> 10 µM (inactive)
same,GI50,[54],> 10 µM (inactive)
same,GI50,[55],> 10 µM (inactive)
same,GI50,[56],> 10 µM (inactive)
same,GI50,[57],13.9 nM (active)
